Our source for the inhibition values is patent EP4559908A1, “HETEROARYL DERIVATIVE COMPOUND AND USE THEREOF” (S2CBio Inc., priority 2022, dated 2024).

This test addresses T1, human ANO6 (variant 5) (Homo sapiens, UniProt Q4KMQ2).
T1 construct: expressed in transfected cells; host or cells: Fischer rat thyroid (FRT) cells
T1 sequence (Q4KMQ2 1-931 isoform Q4KMQ2-2): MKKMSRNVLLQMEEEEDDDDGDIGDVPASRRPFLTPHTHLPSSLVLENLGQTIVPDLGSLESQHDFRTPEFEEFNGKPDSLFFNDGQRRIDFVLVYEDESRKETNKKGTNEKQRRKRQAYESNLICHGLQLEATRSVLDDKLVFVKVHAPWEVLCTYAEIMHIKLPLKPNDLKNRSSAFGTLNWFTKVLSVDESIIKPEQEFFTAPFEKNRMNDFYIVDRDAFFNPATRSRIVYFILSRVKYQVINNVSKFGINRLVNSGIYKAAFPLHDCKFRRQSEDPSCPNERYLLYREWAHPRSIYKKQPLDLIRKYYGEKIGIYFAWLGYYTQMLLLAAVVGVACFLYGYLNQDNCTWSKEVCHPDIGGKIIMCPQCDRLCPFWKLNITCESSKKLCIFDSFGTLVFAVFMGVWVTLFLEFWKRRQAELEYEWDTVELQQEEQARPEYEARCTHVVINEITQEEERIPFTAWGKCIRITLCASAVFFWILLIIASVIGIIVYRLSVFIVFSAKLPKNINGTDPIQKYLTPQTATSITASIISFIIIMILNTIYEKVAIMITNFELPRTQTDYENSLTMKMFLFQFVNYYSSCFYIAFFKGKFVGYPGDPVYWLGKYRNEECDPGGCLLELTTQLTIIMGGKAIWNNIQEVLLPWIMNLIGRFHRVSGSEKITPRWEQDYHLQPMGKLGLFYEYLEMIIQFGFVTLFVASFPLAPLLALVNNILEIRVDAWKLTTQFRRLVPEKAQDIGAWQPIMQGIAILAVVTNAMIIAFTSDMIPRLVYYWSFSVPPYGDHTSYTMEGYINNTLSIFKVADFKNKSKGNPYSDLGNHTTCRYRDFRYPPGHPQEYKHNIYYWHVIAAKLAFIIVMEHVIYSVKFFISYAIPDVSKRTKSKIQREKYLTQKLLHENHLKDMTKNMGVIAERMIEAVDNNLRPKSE
Description: Lact C2 assay (measuring phosphatidylserine externalization scramblase function). The class given is cell-based. To be noted: FRT; for inhibition at 0.05 µM: read-out: % Inhibition 50 nM; for inhibition at 0.1 µM: compound 100 nM; for inhibition at 1 µM: read-out: % Inhibition 1 µM. How it is done:
Ionomycin (Alomonelab, cat. # I-700), DAPI (Sigma- Aldrich, cat. # D8417), paraformaldehyde (Biosesang, cat. #P2031), Lionheart FX automated fluorescence microscope (BioTek), Gen5™ software program (BioTek), and Image J analysis software program.
After the incubation, the cells were treated with compounds dissolved in DMSO to 1% v/v in each well at each concentration (50 nM, 100 nM, and 1 µM) and reacted for 10 minutes. Thereafter, each well was treated with ionomycin to a final concentration of 10 µM, allowed to react for 10 minutes, and then washed with 200 µL PBS. After washing, each well was treated with 50 µL of Lactadherin-C2 (Lact-C2)-GFP mixed in DMEM medium to a final concentration of 500 nM to stain phosphatidylserine, and cultured at 37°C for 10 minutes. After completion of the reaction, the cells were washed with 200 µL PBS, and fixed with 4% paraformaldehyde for 5 minutes at room temperature. For morphological analysis, DAPI solution was added, and the cells were incubated for 15 minutes, followed by washing with PBS. The fluorescence intensity of Lact-C2-GFP bound to phosphatidylserine on the cell surface was measured using an automated fluorescence microscope. For quantitative analysis of the fluorescence intensity of Lact-C2-GFP, BioTek Gen5™ software and Image J analysis software programs were used.
Phosphatidylserine externalization inhibitory activity (%) by the compound was calculated through the following analysis method. Specifically, the background fluorescence value was subtracted from the measured Lact-C2-GFP fluorescence value, and the fluorescence value of the ionomycin non-treatment group and the ionomycin-treatment group in the same row where each test group was located in a 96-well microplate were calculated. In order to calculate the inhibitory activity (%) by the compound, the relative inhibitory activity was calculated by setting the compound and ionomycin non-treatment group to 100% inhibitory activity and the ionomycin alone treatment group to 0% inhibitory activity.

Setting [1] is: compound 50 nM, FRT cells expressing human ANO6 (variant 5), ionomycin 10 µM, Lact-C2-GFP fluorescence, average of three tests.
The mark [2] stands for this setting: FRT cells expressing human ANO6 (variant 5), ionomycin 10 µM, Lact-C2-GFP fluorescence, average of three tests.
[3] abbreviates: compound 1 µM, FRT cells expressing human ANO6 (variant 5), ionomycin 10 µM, Lact-C2-GFP fluorescence, average of three tests.

For orientation: inhibition means how much of the control response was suppressed.

Like-named read-outs stand apart in the source and are kept apart here.

For `Clc1cc2[nH]c(-c3cccc(Nc4ncc(-c5ccccn5)cn4)c3)nc2cn1` [Example 64, N-(3-(6-chloro-1H-imidazolo[4,5-c]pyridin-2-yl)phenyl)-5-(pyridin-2-yl)pyrimidin-2-amine], the inhibition at 0.05 µM under setting [1] was in the range of 30 to 60%. This compound showed an inhibition at 0.1 µM under setting [2] of 30 to 60%.
`FC(F)(F)Oc1ccc2nc(-c3cccc(Nc4ncc(-c5cccnn5)cn4)c3)[nH]c2c1` [Example 295, 5-(pyridazin-3-yl)-N-(3-(6-(trifluoromethoxy)-1H-benzo[d]imidazol-2-yl)phenyl)pyrimidin-2-amine]: the inhibition at 0.05 µM under setting [1] lay in the range of 30 to 60%. Also, the inhibition at 1 µM under setting [3] was greater than 60%.
For the compound `FC(F)(F)c1ccc2nc(-c3ccnc(Nc4ccc(-c5cccnn5)cc4)c3)[nH]c2c1` [Example 261, N-(4-(pyridazin-3-yl)phenyl)-4-(6-(trifluoromethyl)-1H-benzo[d]imidazol-2-yl) pyridin-2-amine], the inhibition at 0.05 µM under setting [1] is 30 to 60%. The inhibition at 1 µM under setting [3] is greater than 60%.
On to `FC(F)(F)c1ccc2nc(-c3cccc(Nc4ccc(-c5ccccc5)cn4)c3)[nH]c2c1` [Example 15, 5-Phenyl-N-{3-[6-(trifluoromethyl)-1H-benzo[d]imidazol-2-yl]phenyl}pyridin-2-amine], for which the inhibition at 0.05 µM under setting [1] was greater than 60%. The compound further gave an inhibition at 0.1 µM under setting [2] greater than 60%. The inhibition at 1 µM under setting [3] was greater than 60%.
Turning to `Fc1cc2[nH]c(-c3cccc(Nc4ccc(-c5cccnn5)cc4)c3)nc2cc1C(F)(F)F` [Example 104, 3-[6-fluoro-5-(trifluoromethyl)-1H-benzo[d]imidazol-2-yl]-N-(4-pyridazin-3-ylphenyl)aniline], the inhibition at 0.05 µM under setting [1] is greater than 60%. Besides, under setting [3], the inhibition at 1 µM was greater than 60%.
Regarding `Clc1cc2[nH]c(-c3cccc(Nc4ccc(-c5ccncn5)cc4)c3)nc2cn1` [Example 117, 3-(6-chloro-1H-imidazo[4,5-c]pyridin-2-yl)-N-(4-pyrimidin-4-ylphenyl)aniline], the inhibition at 1 µM under setting [3] was greater than 60%.
In the case of `c1cnc(-c2ccc(Nc3cccc(-c4nc5ccccc5[nH]4)c3)cc2)nc1` [Example 26, N-[3-(1H-benzo[d]imidazol-2-yl)phenyl]-4-(pyrimidin-2-yl)aniline], the inhibition at 0.05 µM under setting [1] was greater than 60%. Further, under setting [2], the inhibition at 0.1 µM was greater than 60%. The inhibition at 1 µM under setting [3] was greater than 60%.
As to `c1ccc(-c2ccc(Nc3cccc(-c4nc5ccccc5[nH]4)c3)cc2)cc1` [Example 19, N-[3-(1H-benzo[d]imidazol-2-yl)phenyl]-[1,1'-biphenyl]-4-amine], the inhibition at 0.05 µM under setting [1] was 30 to 60%. The inhibition at 0.1 µM under setting [2] was greater than 60%. Also, the inhibition at 1 µM under setting [3] was greater than 60%.
Turning to `FC(F)Oc1ccc2nc(-c3cccc(Nc4ccc(-c5ccccn5)cn4)c3)[nH]c2c1` [Example 284, N-(3-(6-(difluoromethoxy)-1H-benzo[d]imidazol-2-yl)phenyl)-[2,3'-bipyridin]-6'-amine], the inhibition at 0.05 µM under setting [1] was greater than 60%. In addition, the inhibition at 1 µM under setting [3] is greater than 60%.
On to `FC(F)(F)c1ccc2[nH]c(-c3cccc(Nc4ncc(-c5ccccn5)cn4)c3)nc2n1` [Example 244, 5-(pyridin-2-yl)-N-(3-(5-(trifluoromethyl)-1H-imidazo[4,5-b]pyridin-2-yl)phenyl)pyrimidin-2-amine], for which the inhibition at 0.05 µM under setting [1] was 30 to 60%. The inhibition at 1 µM under setting [3] is greater than 60%.
As for `FC(F)(F)c1cc2[nH]c(-c3cccc(Nc4ccc(-c5ccccn5)cn4)c3)nc2cn1` [Example 238, N-(3-(6-(trifluoromethyl)-1H-imidazo [4,5-c]pyridin-2-yl)phenyl)-[2,3'-bipyridin]-6'-amine], the inhibition at 0.05 µM under setting [1] was greater than 60%. Further, the inhibition at 1 µM under setting [3] is greater than 60%.
`FC(F)(F)c1cccc2nc(-c3cccc(Nc4ncc(-c5cccnn5)cn4)c3)[nH]c12` [Example 289, 5-(pyridazin-3-yl)-N-(3-(7-(trifluoromethyl)-1H-benzo[d]imidazol-2-yl)phenyl)pyrimidin-2-amine]: under setting [3], the inhibition at 1 µM lay in the range of 30 to 60%.
`Fc1ccc(-c2ccc(Nc3cccc(-c4nc5ccc(C(F)(F)F)cc5[nH]4)c3)cc2)nc1` [Example 253, N-(4-(5-fluoropyridin-2-yl)phenyl)-3-(6-(trifluoromethyl)-1H-benzo[d]imidazol-2-yl)aniline]: the inhibition at 0.05 µM under setting [1] is greater than 60%. Further, under setting [3], the inhibition at 1 µM was greater than 60%.
As to `c1cc(Nc2ncc(-c3ncco3)cn2)cc(-c2nc3ccccc3[nH]2)c1` [Example 171, N-[3-(1H-benzo[d]imidazol-2-yl)phenyl]-5-oxazol-2-yl-pyrimidin-2-amine], the inhibition at 1 µM under setting [3] fell in the range of 30 to 60%.
For `Fc1ccc2nc(-c3cccc(Nc4ccc(-c5ccncn5)cc4)c3)[nH]c2c1` [Example 96, 3-(6-fluoro-1H-benzo[d]imidazol-2-yl)-N-(4-pyrimidin-4-ylphenyl)aniline], the inhibition at 0.05 µM under setting [1] was greater than 60%. Also, under setting [3], the inhibition at 1 µM is greater than 60%.
`CN(Cc1ccccc1)c1ccc2nc(-c3cccc(Nc4ccc(-c5cccnn5)cc4)c3)[nH]c2c1` [Example 280, N-benzyl-N-methyl-2-(3-((4-(pyridazin-3-yl)phenyl)amino)phenyl)-1H-benzo[d]imidazol-6-amine]: the inhibition at 0.05 µM lay within 30 to 60% and the inhibition at 1 µM is greater than 60%.
For the compound `CC(C)(C)c1ccc2nc(-c3cccc(Nc4ccc(-c5cccnn5)cc4)c3)[nH]c2c1` [Example 107, 3-(6-tert-butyl-1H-benzo[d]imidazol-2-yl)-N-(4-pyridazin-3-ylphenyl)aniline], the inhibition at 0.05 µM under setting [1] was in the range of 30 to 60%. In addition, the inhibition at 1 µM under setting [3] is greater than 60%.
As to `c1cc(Nc2ncc(-c3cccnn3)cn2)cc(-c2nc3ccccc3[nH]2)c1` [Example 53, N-[3-(1H-benzo[d]imidazol-2-yl)phenyl]-5-(pyridazin-3-yl)pyrimidin-2-amine], under setting [1], the inhibition at 0.05 µM is 30 to 60%. Besides, the inhibition at 0.1 µM under setting [2] is 30 to 60%.
For the compound `c1cc(Nc2ccc(-c3ccncc3)cc2)cc(-c2nc3ccccc3[nH]2)c1` [Example 33, N-[3-(1H-benzo[d]imidazol-2-yl)phenyl]-4-(pyridin-4-yl)aniline], the inhibition at 0.05 µM under setting [1] lay within 30 to 60%. Also, under setting [2], the inhibition at 0.1 µM lay within 30 to 60%.
On to `FC(F)(F)c1cnc2nc(-c3cccc(Nc4ccc(-c5cccnn5)cc4)c3)[nH]c2c1` [Example 234, N-(4-(pyridazin-3-yl)phenyl)-3-(6-(trifluoromethyl)-1H-imidazo[4,5-b]pyridin-2-yl)aniline], for which the inhibition at 0.05 µM under setting [1] was in the range of 30 to 60%. For the same compound, under setting [3], the inhibition at 1 µM was greater than 60%.
As for `c1cc(Nc2cnc(-c3ccncn3)cn2)cc(-c2nc3ccccc3[nH]2)c1` [Example 277, N-(3-(1H-benzo[d]imidazol-2-yl)phenyl)-5-(pyrimidin-4-yl)pyrazin-2-amine], the inhibition at 0.05 µM under setting [1] was greater than 60%.
For the compound `Clc1cc2nc(-c3cccc(Nc4ccc(-c5ccccc5)cn4)c3)[nH]c2cc1Cl` [Example 13, N-[3-(5,6-dichloro-1H-benzo[d]imidazol-2-yl)phenyl]-5-phenylpyridin-2-amine], the inhibition at 0.05 µM under setting [1] is greater than 60%. Moreover, under setting [2], the inhibition at 0.1 µM is greater than 60%. Further, the inhibition at 1 µM under setting [3] is greater than 60%.
